In US20230391760A1, “HETEROCYCLIC GLP-1 AGONISTS” (Gasherbrum Bio, Inc., priority 2020, published 2023):

Target: GLP-1 Receptor (Homo sapiens, UniProt P43220)
Assay: GLP-1R agonist cAMP stimulation assay (HEK293/GLP1R/CRE-LUC cells, cAMP dynamic 2 Kit)
Type: cell-based
Details: HEK293/CRE-Luc cell line stably expressing the GLP-1 Receptor, 30 min at 37° C.
In short: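 HEK293 cells stably expressing human GLP-1R with CRE-luciferase, 1000 cells/well in DPBS with 0.5 mM IBMX and 0.1% BSA, treated with compound in 1/2-log serial dilution for 30 min at 37 °C. cAMP then detected by HTRF (cAMP-d2 plus anti-cAMP cryptate), 1 h at room temperature in the dark.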

GLP-1 Receptor, sequence (P43220 24-463, species assumed): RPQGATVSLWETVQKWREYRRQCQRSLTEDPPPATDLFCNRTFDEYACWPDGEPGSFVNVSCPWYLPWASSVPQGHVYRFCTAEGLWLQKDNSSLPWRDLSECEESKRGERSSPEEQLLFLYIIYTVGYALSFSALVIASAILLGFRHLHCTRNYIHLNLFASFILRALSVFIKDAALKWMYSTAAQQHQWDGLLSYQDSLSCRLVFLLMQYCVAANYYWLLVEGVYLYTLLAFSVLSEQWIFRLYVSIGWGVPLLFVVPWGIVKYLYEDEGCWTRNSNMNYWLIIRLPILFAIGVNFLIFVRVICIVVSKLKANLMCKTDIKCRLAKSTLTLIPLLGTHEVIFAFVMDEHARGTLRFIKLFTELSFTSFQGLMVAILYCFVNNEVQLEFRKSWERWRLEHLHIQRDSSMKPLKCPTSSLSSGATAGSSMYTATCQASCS

Row | Structure (SMILES) | EC50 [pM]
1 | CC1(c2ccc(C#N)cc2F)Oc2cccc(C3CCN(Cc4nc5cc(-c6nnc(C7CC7)[nH]6)cnc5n4C[C@@H]4CCO4)CC3)c2O1 (stereo partly drawn) [Compound 276a, 4-[4-(1-{[6-(5-cyclopropyl-4H-1,2,4-triazol-3-yl)-3-{[(2S)-oxetan-2-yl]methyl}-3H-imidazo[4,5-b]pyridin-2-yl]methyl}piperidin-4-yl)-2-methyl-2H-1,3-benzodioxol-2-yl]-3-fluorobenzonitrile] | 560
2 | C[C@]1(c2ccc(Cl)cc2F)Oc2cccc(C3CCN(Cc4nc5cc(-c6nnc(C7CC7)[nH]6)cnc5n4C[C@@H]4CCO4)CC3)c2O1 [Compound 282a, 4-[(2S)-2-(4-chloro-2-fluorophenyl)-2-methyl-2H-1,3-benzodioxol-4-yl]-1-{[6-(5-cyclopropyl-4H-1,2,4-triazol-3-yl)-3-{[(2S)-oxetan-2-yl]methyl}-3H-imidazo[4,5-b]pyridin-2-yl]methyl}piperidine] | 450
3 | O=c1[nH]c(-c2cnc3c(c2)nc(CN2CC=C(c4ccc(F)c(OCc5ccc(Cl)cc5F)c4)CC2)n3C[C@@H]2CCO2)no1 [Compound 293a, 3-{2-[(4-{3-[(4-chloro-2-fluorophenyl)methoxy]-4-fluorophenyl}-1,2,3,6-tetrahydropyridin-1-yl)methyl]-3-{[(2S)-oxetan-2-yl]methyl}-3H-imidazo[4,5-b]pyridin-6-yl}-4,5-dihydro-1,2,4-oxadiazol-5-one] | 2800
4 | Fc1cc(Cl)ccc1COc1cc(C2=CCN(Cc3nc4cc(-c5nnc(C(F)(F)F)[nH]5)cnc4n3C[C@@H]3CCO3)CC2)ccc1F [Compound 294a, 4-{3-[(4-chloro-2-fluorophenyl)methoxy]-4-fluorophenyl}-1-[(3-{[(2S)-oxetan-2-yl]methyl}-6-[5-(trifluoromethyl)-4H-1,2,4-triazol-3-yl]-3H-imidazo[4,5-b]pyridin-2-yl)methyl]-1,2,3,6-tetrahydropyridine] | 470
5 | N#Cc1ccc(COc2cc(C3=CCN(Cc4nc5cc(-c6noc(=O)[nH]6)cnc5n4C[C@@H]4CCO4)CC3)ccc2F)c(F)c1 [Compound 295a, 3-fluoro-4-[(2-fluoro-5-{1-[(3-{[(2S)-oxetan-2-yl]methyl}-6-(5-oxo-4,5-dihydro-1,2,4-oxadiazol-3-yl)-3H-imidazo[4,5-b]pyridin-2-yl)methyl]-1,2,3,6-tetrahydropyridin-4-yl}phenoxy)methyl]benzonitrile] | 2600
6 | N#Cc1ccc(COc2cc(C3=CCN(Cc4nc5cc(-c6nnc(C(F)(F)F)[nH]6)cnc5n4C[C@@H]4CCO4)CC3)ccc2F)c(F)c1 [Compound 296a, 3-fluoro-4-[(2-fluoro-5-{1-[(3-{[(2S)-oxetan-2-yl]methyl}-6-[5-(trifluoromethyl)-4H-1,2,4-triazol-3-yl]-3H-imidazo[4,5-b]pyridin-2-yl)methyl]-1,2,3,6-tetrahydropyridin-4-yl}phenoxy)methyl]benzonitrile] | 480

These reach a lower EC50. Values come first.

Row | EC50 [pM] | Structure (SMILES)
7 | 150 | CC1(c2ccc(C#N)cc2F)Oc2cccc(C3CCN(Cc4nc5cc(-c6nnc(C7CC7)[nH]6)ccc5n4C[C@@H]4CCO4)CC3)c2O1 (stereo partly drawn) [Compound 277a, 4-[4-(1-{[5-(5-cyclopropyl-4H-1,2,4-triazol-3-yl)-1-{[(2S)-oxetan-2-yl]methyl}-1H-1,3-benzodiazol-2-yl]methyl}piperidin-4-yl)-2-methyl-2H-1,3-benzodioxol-2-yl]-3-fluorobenzonitrile]
8 | 110 | Cc1nnc(-c2cc3nc(CN4CCC(c5cccc6c5O[C@@](C)(c5ccc(Cl)cc5F)O6)CC4)n(C[C@@H]4CCO4)c3nn2)[nH]1 [Compound 280a, 4-[(2S)-2-(4-chloro-2-fluorophenyl)-2-methyl-2H-1,3-benzodioxol-4-yl]-1-{[3-(5-methyl-4H-1,2,4-triazol-3-yl)-7-{[(2S)-oxetan-2-yl]methyl}-7H-imidazo[4,5-c]pyridazin-6-yl]methyl}piperidine]
9 | 100 | C[C@]1(c2ccc(Cl)cc2F)Oc2cccc(C3CCN(Cc4nc5cc(-c6nnc(C7CC7)[nH]6)ccc5n4C[C@@H]4CCO4)CC3)c2O1 [Compound 283a, 2-({4-[(2S)-2-(4-chloro-2-fluorophenyl)-2-methyl-2H-1,3-benzodioxol-4-yl]piperidin-1-yl}methyl)-5-(5-cyclopropyl-4H-1,2,4-triazol-3-yl)-1-{[(2S)-oxetan-2-yl]methyl}-1H-1,3-benzodiazole]
10 | 100 | Cc1nnc(-c2cnc3c(c2)nc(CN2CCC(c4cccc5c4O[C@@](C)(c4ccc(Cl)cc4F)O5)CC2)n3C[C@@H]2CCO2)[nH]1 [Compound 292a, 4-[(2S)-2-(4-chloro-2-fluorophenyl)-2-methyl-2H-1,3-benzodioxol-4-yl]-1-{[6-(5-methyl-4H-1,2,4-triazol-3-yl)-3-{[(2S)-oxetan-2-yl]methyl}-3H-imidazo[4,5-b]pyridin-2-yl]methyl}piperidine]
11 | 98 | Fc1cc(Cl)ccc1COc1cc(C2=CCN(Cc3nc4cc(-c5nnc(C(F)(F)F)[nH]5)ncc4n3C[C@@H]3CCO3)CC2)ccc1F [Compound 297a, 4-{3-[(4-chloro-2-fluorophenyl)methoxy]-4-fluorophenyl}-1-[(3-{[(2S)-oxetan-2-yl]methyl}-6-[5-(trifluoromethyl)-4H-1,2,4-triazol-3-yl]-3H-imidazo[4,5-c]pyridin-2-yl)methyl]-1,2,3,6-tetrahydropyridine]
12 | 23 | C[C@]1(c2ccc(Cl)cc2F)Oc2cccc(C3CCN(Cc4nc5cc(-c6nnc(C7CC7)[nH]6)ncc5n4C[C@@H]4CCO4)CC3)c2O1 [Compound 281a, 4-[(2S)-2-(4-chloro-2-fluorophenyl)-2-methyl-2H-1,3-benzodioxol-4-yl]-1-{[6-(5-cyclopropyl-4H-1,2,4-triazol-3-yl)-3-{[(2S)-oxetan-2-yl]methyl}-3H-imidazo[4,5-c]pyridin-2-yl]methyl}piperidine]
13 | 19 | CC1(c2ccc(C#N)cc2F)Oc2cccc(C3CCN(Cc4nc5cc(-c6nnc(C(F)(F)F)[nH]6)nnc5n4C[C@@H]4CCO4)CC3)c2O1 (stereo partly drawn) [Compound 273a, 3-fluoro-4-(2-methyl-4-{1-[(7-{[(2S)-oxetan-2-yl]methyl}-3-[5-(trifluoromethyl)-4H-1,2,4-triazol-3-yl]-7H-imidazo[4,5-c]pyridazin-6-yl)methyl]piperidin-4-yl}-2H-1,3-benzodioxol-2-yl)benzonitrile]
14 | 8.7 | Cc1nnc(-c2cc3nc(CN4CCC(c5cccc6c5O[C@@](C)(c5ccc(C#N)cc5F)O6)CC4)n(C[C@@H]4CCO4)c3cn2)[nH]1 [Compound 288a, 3-fluoro-4-[(2S)-2-methyl-4-(1-{[6-(5-methyl-4H-1,2,4-triazol-3-yl)-3-{[(2S)-oxetan-2-yl]methyl}-3H-imidazo[4,5-c]pyridin-2-yl]methyl}piperidin-4-yl)-2H-1,3-benzodioxol-2-yl]benzonitrile]
15 | 5.1 | Cc1nnc(-c2cc3nc(CN4CCC(c5cccc6c5O[C@@](C)(c5ccc(Cl)cc5F)O6)CC4)n(C[C@@H]4CCO4)c3cn2)[nH]1 [Compound 289a, 4-[(2S)-2-(4-chloro-2-fluorophenyl)-2-methyl-2H-1,3-benzodioxol-4-yl]-1-{[6-(5-methyl-4H-1,2,4-triazol-3-yl)-3-{[(2S)-oxetan-2-yl]methyl}-3H-imidazo[4,5-c]pyridin-2-yl]methyl}piperidine]
